According to patent US12527325B2, “Pesticidally active diazine-amide compounds” (SYNGENTA CROP PROTECTION AG, priority 2019, dated 2026):

How the values were obtained:
Format in all cases: in vivo
Plutella xylostella [1] = experiment: Example B5: Plutella xylostella (Diamond Back Moth); conditions: 192 h, application rate of 200 ppm, 24-well artificial diet, eggs, 8 days after infestation, read-out: control in at least one of the two categories (mortality or growth inhibition)
Description: Example B5: Plutella xylostella (Diamond Back Moth)
24-well microtiter plates with artificial diet were treated with aqueous test solutions prepared from 10′000 ppm DMSO stock solutions by pipetting. After drying, Plutella eggs were pipetted through a plastic stencil onto a gel blotting paper and the plate was closed with it. The samples were assessed for mortality and growth inhibition in comparison to untreated samples 8 days after infestation.

Diabrotica balteata = experiment: Example B1: Diabrotica balteata (Corn Root Worm); conditions: 96 h, application rate of 200 ppm, sprayed maize sprouts, L2 larvae, 4 days after infestation, read-out: control in at least one of the two categories (mortality or growth inhibition)
Description: Example B1: Diabrotica balteata (Corn Root Worm)
Maize sprouts placed onto an agar layer in 24-well microtiter plates were treated with aqueous test solutions prepared from 10′000 ppm DMSO stock solutions by spraying. After drying, the plates were infested with L2 larvae (6 to 10 per well). The samples were assessed for mortality and growth inhibition in comparison to untreated samples 4 days after infestation.

Chilo suppressalis = experiment: Example B4: Chilo suppressalis (Striped Rice Stemborer); conditions: 144 h, application rate of 200 ppm, artificial diet, L2 larvae, 6 days after infestation, read-out: control in at least one of the three categories (mortality, anti-feedant or growth inhibition)
Description: Example B4: Chilo suppressalis (Striped Rice Stemborer)
24-well microtiter plates with artificial diet were treated with aqueous test solutions prepared from 10′000 ppm DMSO stock solutions by pipetting. After drying, the plates were infested with L2 larvae (6-8 per well). The samples were assessed for mortality, anti-feeding effect, and growth inhibition in comparison to untreated samples 6 days after infestation. Control of Chilo suppressalis by a test sample is given when at least one of the categories mortality, anti-feedant effect, and growth inhibition is higher than the untreated sample.

Spodoptera littoralis = experiment: Example B9: Spodoptera littoralis (Egyptian Cotton Leaf Worm), cotton leaf disc spray; conditions: foliar, 72 h, application rate of 200 ppm, sprayed cotton leaf discs, L1 larvae, 3 days after infestation, read-out: control in at least one of the three categories (mortality, anti-feedant or growth inhibition)
Plutella xylostella [2] = experiment: Example B12: Plutella xylostella (Diamondback Moth), 96-well artificial diet; conditions: 216 h, application rate of 500 ppm, eggs, 9 days after infestation
Description: Example B12: Plutella xylostella (Diamondback Moth)
96-well microtiter plates containing artificial diet were treated with aqueous test solutions, prepared from 10′000 ppm DMSO stock solutions, by a liquid handling robot. After drying, eggs (˜30 per well) were infested onto a netted lid which was suspended above the diet. The eggs hatch and L1 larvae move down to the diet. The samples were assessed for mortality 9 days after infestation.

| Compound | percent control (mortality or growth inhibition) at 200 ppm (Plutella xylostella [1]) [%] | percent control (mortality or growth inhibition) at 200 ppm (Diabrotica balteata) [%] | percent control (mortality, anti-feedant effect or growth inhibition) at 200 ppm (Chilo suppressalis) [%] | percent control (mortality, anti-feedant effect or growth inhibition) at 200 ppm (Spodoptera littoralis) [%] | mortality at 500 ppm (Plutella xylostella [2]) [%] |
| --- | --- | --- | --- | --- | --- |
| CC(NC(=O)c1cc(C(F)(F)F)cc(C(C)(C)C#N)c1)c1nccnc1-c1ccc(F)cn1 (stereo not shown) [P5, 3-(1-cyano-1-methyl-ethyl)-N-[1-[3-(5-fluoro-2-pyridyl)pyrazin-2-yl]ethyl]-5-(trifluoromethyl) benzamide] | ≥ 80 | – | – | – | – |
| CC(NC(=O)c1cc(C(F)(F)F)cc(C(C)(C)C#N)c1)c1nccnc1-c1ccc(Cl)cn1 (stereo not shown) [P8, N-[1-[3-(5-chloro-2-pyridyl)pyrazin-2-yl]ethyl]-3-(1-cyano-1-methyl-ethyl)-5-(trifluoromethyl) benzamide] | ≥ 80 | ≥ 80 | ≥ 80 | ≥ 80 | – |
| CC(NC(=O)c1cc(C(F)(F)F)cc(C(C)(C)C#N)c1)c1nccnc1-c1ccc(Br)cn1 (stereo not shown) [P9, N-[1-[3-(5-bromo-2-pyridyl)pyrazin-2-yl]ethyl]-3-(1-cyano-1-methyl-ethyl)-5-(trifluoromethyl) benzamide] | ≥ 80 | ≥ 80 | ≥ 80 | ≥ 80 | – |
| Cc1cnc(-c2nccnc2C(C)NC(=O)c2cc(C(F)(F)F)cc(S(=O)(=O)C(F)(F)F)c2)nc1 (stereo not shown) [P56, N-[1-[3-(5-methylpyrimidin-2-yl)pyrazin-2-yl]ethyl]-3-(trifluoromethyl)-5-(trifluoromethylsulfonyl) benzamide] | ≥ 80 | – | ≥ 80 | ≥ 80 | – |
| CC(NC(=O)c1cc(C2CC2)cc(C(F)(F)F)c1)c1nccnc1-c1ccc(Br)cn1 (stereo not shown) [P29, N-[1-[3-(5-bromo-2-pyridyl)pyrazin-2-yl]ethyl]-3-cyclopropyl-5-(trifluoromethyl)benzamide] | ≥ 80 | – | – | – | ≥ 80 |
| CC(NC(=O)c1cc(C(F)(F)F)cc(C(C)(C)C#N)c1)c1nccnc1-c1ccccn1 (stereo not shown) [P7, 3-(1-cyano-1-methyl-ethyl)-N-[1-[3-(2-pyridyl)pyrazin-2-yl]ethyl]-5-(trifluoromethyl) benzamide] | ≥ 80 | ≥ 80 | ≥ 80 | ≥ 80 | – |
| CC(NC(=O)c1cc(C(F)(F)F)cc(C(C)(C)C#N)c1)c1nccnc1-c1ncc(Br)cn1 (stereo not shown) [P49, N-[1-[3-(5-bromopyrimidin-2-yl)pyrazin-2-yl]ethyl]-3-(1-cyano-1-methyl-ethyl)-5-(trifluoromethyl)benzamide] | ≥ 80 | ≥ 80 | ≥ 80 | ≥ 80 | – |
| CC(NC(=O)c1cc(C(F)(F)F)cc(C(F)(F)C2CC2)c1)c1nccnc1-c1ccc(Cl)cn1 (stereo not shown) [P4, N-[1-[3-(5-chloro-2-pyridyl)pyrazin-2-yl]ethyl]-3-[cyclopropyl(difluoro)methyl]-5-(trifluoromethyl) benzamide] | ≥ 80 | – | ≥ 80 | ≥ 80 | – |
| Cc1cnc(-c2nccnc2C(C)NC(=O)c2cc(C(F)(F)F)cc(C3(C#N)CC3)c2)nc1 (stereo not shown) [P54, 3-(1-cyanocyclopropyl)-N-[1-[3-(5-methylpyrimidin-2-yl)pyrazin-2-yl]ethyl]-5-(trifluoromethyl)benzamide] | ≥ 80 | – | ≥ 80 | ≥ 80 | – |
| CC(NC(=O)c1cc(C(F)(F)F)cc(S(=O)(=O)C(F)(F)F)c1)c1nccnc1-c1ccc(F)cn1 (stereo not shown) [P12, N-[1-[3-(5-fluoro-2-pyridyl)pyrazin-2-yl]ethyl]-3-(trifluoromethyl)-5-(trifluoromethylsulfonyl) benzamide] | – | – | ≥ 80 | – | ≥ 80 |
| CC(NC(=O)c1cc(C(F)(F)F)cc(S(=O)(=O)C(F)(F)F)c1)c1nccnc1-c1ccc(Br)cn1 (stereo not shown) [P14, N-[1-[3-(5-bromo-2-pyridyl)pyrazin-2-yl]ethyl]-3-(trifluoromethyl)-5-(trifluoromethylsulfonyl) benzamide] | – | – | – | – | ≥ 80 |
| CC(NC(=O)c1cc(C(F)(F)F)cc(C(F)(F)C2CC2)c1)c1nccnc1-c1ncc(Br)cn1 (stereo not shown) [P53, N-[1-[3-(5-bromopyrimidin-2-yl)pyrazin-2-yl]ethyl]-3-[cyclopropyl(difluoro)methyl]-5-(trifluoromethyl)benzamide] | ≥ 80 | ≥ 80 | ≥ 80 | ≥ 80 | – |
| COC1(c2cc(C(=O)NC(C)c3nccnc3-c3ncccn3)cc(C(F)(F)F)c2)CC1 (stereo not shown) [P47, 3-(1-methoxycyclopropyl)-N-[1-(3-pyrimidin-2-ylpyrazin-2-yl)ethyl]-5-(trifluoromethyl)benzamide] | ≥ 80 | – | ≥ 80 | – | – |
| Cc1cnc(-c2nccnc2C(C)NC(=O)c2cc(C3CC3)cc(C(F)(F)F)c2)nc1 (stereo not shown) [P51, 3-cyclopropyl-N-[1-[3-(5-methylpyrimidin-2-yl)pyrazin-2-yl]ethyl]-5-(trifluoromethyl)benzamide] | ≥ 80 | – | – | ≥ 80 | – |
| CC(NC(=O)c1cc(C(F)(F)F)cc(S(=O)(=O)C(F)(F)F)c1)c1nccnc1-c1ccc(Cl)cn1 (stereo not shown) [P15, N-[1-[3-(5-chloro-2-pyridyl)pyrazin-2-yl]ethyl]-3-(trifluoromethyl)-5-(trifluoromethylsulfonyl) benzamide] | – | – | – | – | ≥ 80 |
| CC(NC(=O)c1cc(OCC2CC2)nc(C(F)(F)F)c1)c1nccnc1-c1ncccn1 (stereo not shown) [P43, 2-(cyclopropylmethoxy)-N-[1-(3-pyrimidin-2-ylpyrazin-2-yl)ethyl]-6-(trifluoromethyl)pyridine-4-carboxamide] | ≥ 80 | – | ≥ 80 | – | – |
| CC(NC(=O)c1cc(C2CC2)cc(C(F)(F)F)c1)c1nccnc1-c1ncc(Br)cn1 (stereo not shown) [P58, N-[1-[3-(5-bromopyrimidin-2-yl)pyrazin-2-yl]ethyl]-3-cyclopropyl-5-(trifluoromethyl) benzamide] | ≥ 80 | ≥ 80 | ≥ 80 | ≥ 80 | – |
| Cc1cnc(-c2nccnc2C(C)NC(=O)c2cc(C(F)(F)F)cc(C(F)(F)C3CC3)c2)nc1 (stereo not shown) [P52, 3-[cyclopropyl (difluoro)methyl]-N-[1-[3-(5-methylpyrimidin-2-yl)pyrazin-2-yl]ethyl]-5-(trifluoromethyl)benzamide] | ≥ 80 | – | – | ≥ 80 | – |
| CC(NC(=O)c1cc(C(F)(F)F)cc(S(=O)(=O)C(F)(F)F)c1)c1nccnc1-c1ncc(Br)cn1 (stereo not shown) [P57, N-[1-[3-(5-bromopyrimidin-2-yl)pyrazin-2-yl]ethyl]-3-(trifluoromethyl)-5-(trifluoromethylsulfonyl) benzamide] | ≥ 80 | ≥ 80 | ≥ 80 | ≥ 80 | – |
| CC(NC(=O)c1cc(C(F)(F)F)cc(C(C)(C)C#N)c1)c1nccnc1-c1ncc(C2CC2)cn1 (stereo not shown) [P6, 3-(1-cyano-1-methyl-ethyl)-N-[1-[3-(5-cyclopropylpyrimidin-2-yl)pyrazin-2-yl]ethyl]-5-(trifluoromethyl) benzamide] | ≥ 80 | ≥ 80 | ≥ 80 | ≥ 80 | – |
| CC(NC(=O)c1cc(C(F)(F)F)cc(C(F)(F)C2CC2)c1)c1nccnc1-c1ccc(F)cn1 (stereo not shown) [P38, 3-[cyclopropyl (difluoro)methyl]-N-[1-[3-(5-fluoro-2-pyridyl)pyrazin-2-yl]ethyl]-5-(trifluoromethyl)benzamide] | ≥ 80 | – | – | – | ≥ 80 |
